Measurements from patent publication US8242275B2, “Bicyclic pyrazole compounds as antibacterial agents” (Janssen Pharmaceutica NV, priority 2005, dated 2012).
≈ marks a conversion by molar mass, not a printed value. Like-named read-outs stand apart in the source and are kept apart here.

Tests used:
[1] = test system: E. coli KL-16 (GSC strain 4245); assay: In vitro antibacterial activity (MIC assay), broth microdilution; format: cell-based; details: Escherichia coli
Summary of the method: (§1)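 Bacteria at roughly 5×10^5 CFU/mL final were grown 16–24 h at 35° C in wells holding 2-fold serial dilutions (11 points) of compound prepared in 100% DMSO, following NCCLS M7-A5. MIC, in μg/mL, is the concentration that stops visible growth relative to untreated wells.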

S. aureus ATCC13709 = assay: as above; format: cell-based; details: Staphylococcus aureus, ATCC13709; read-out: S. aureus ATCC13709 MIC
Summary of the method: as §1

S. pneumoniae ATCC49619 = assay: as above; format: cell-based; details: Streptococcus pneumoniae, ATCC49619; read-out: S. pneumoniae ATCC49619 MIC
Summary of the method: as §1

E. coli DNA gyrase = biological target: T1, E. coli DNA gyrase (Escherichia coli, UniProt P0AES4+P0AES6); assay: DNA gyrase inhibition assay (supercoiling); format: biochemical
T1 construct: purchased John Innes Enterprises Ltd. (John Innes Centre, UK)
Summary of the method: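 Agarose-gel (1.0%, ethidium-stained) readout of supercoiled versus relaxed pBR322 after 30 min at 37° C. Each reaction held 250 ng DNA, 0.2 unit enzyme, 1 mM ATP, 4 mM MgCl2, 24 mM KCl in 35 mM Tris-HCl pH 7.5, and compound at 0.5% DMSO final.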

E. coli topoisomerase IV = biological target: T2, E. coli topoisomerase IV (Escherichia coli, UniProt P0AFI2+P20083); assay: Topoisomerase IV inhibition assay (relaxation); format: biochemical
T2 construct: purchased John Innes Enterprises Ltd. (John Innes Centre, UK)
Experimental: Inhibition of the relaxation activity of E. coli topoisomerase IV was determined using enzyme, buffers and substrates received from John Innes Enterprises Ltd. (John Innes Centre, UK). The reactions were performed according to the manufacturer's directions, with the following modifications.
DNA relaxation reactions were carried out in a total reaction volume of 20 μL, containing 300 ng of supercoiled pBR322, 40 mM HEPES-KOH (pH 7.6), 100 mM potassium glutamate, 10 mM Mg(OAc)2, 10 mM DTT, 4 μg/mL tRNA, 2 mM ATP, and 50 μg/mL BSA. Compounds, diluted in 10% DMSO, were added to the reaction mixture to reach a final concentration of 0.5% DMSO. Enzyme was diluted to 0.45 unit/μL in a solution of 40 mM HEPES-KOH (pH 7.6), 150 mM potassium glutamate, 1 mM DTT, 1 mM EDTA, and 40% glycerol. Diluted enzyme (0.9 unit) was added to each reaction.
The reactions were incubated at 37° C. for 45 min. The reactions were then cooled to 0° C. followed by addition of 3 μL of 40% glycerol, 100 mM Tris-HCl (pH 7.5), 50 mM EDTA, 0.5% SDS and 0.1% bromophenol blue. Samples were separated on 1.0% agarose gels. Gels were stained with Ethidium bromide and photographed with a Stratagene Eagle Eye II.

[2] = E. coli DNA gyrase supercoiling, visual inspection of gels, read-out: DNA Gyrase IC50 (converted)
[3] = E. coli topoisomerase IV relaxation, visual inspection of gels, read-out: Topoisomerase IV IC50 (converted)

T2 sequence (P0AFI2 whole entry): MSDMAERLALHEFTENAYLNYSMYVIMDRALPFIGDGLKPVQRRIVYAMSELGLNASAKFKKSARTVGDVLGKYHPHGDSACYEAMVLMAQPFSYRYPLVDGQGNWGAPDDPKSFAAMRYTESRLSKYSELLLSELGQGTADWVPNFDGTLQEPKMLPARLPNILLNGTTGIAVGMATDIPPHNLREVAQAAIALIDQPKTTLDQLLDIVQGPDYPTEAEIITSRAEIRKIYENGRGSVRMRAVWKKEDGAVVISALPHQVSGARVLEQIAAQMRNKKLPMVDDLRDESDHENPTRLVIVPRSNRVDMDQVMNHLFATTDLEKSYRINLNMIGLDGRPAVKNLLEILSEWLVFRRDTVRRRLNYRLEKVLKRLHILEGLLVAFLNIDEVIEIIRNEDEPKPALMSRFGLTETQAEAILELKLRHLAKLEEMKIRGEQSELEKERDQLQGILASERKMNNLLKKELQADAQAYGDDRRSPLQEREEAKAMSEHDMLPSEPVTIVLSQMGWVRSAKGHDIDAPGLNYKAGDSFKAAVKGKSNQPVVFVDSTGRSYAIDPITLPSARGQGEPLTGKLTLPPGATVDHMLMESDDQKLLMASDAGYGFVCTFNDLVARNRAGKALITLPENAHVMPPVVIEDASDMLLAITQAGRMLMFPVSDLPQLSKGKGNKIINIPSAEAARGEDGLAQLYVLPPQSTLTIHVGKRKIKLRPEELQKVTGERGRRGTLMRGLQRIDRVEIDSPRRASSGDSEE
T2 sequence (P20083 whole entry): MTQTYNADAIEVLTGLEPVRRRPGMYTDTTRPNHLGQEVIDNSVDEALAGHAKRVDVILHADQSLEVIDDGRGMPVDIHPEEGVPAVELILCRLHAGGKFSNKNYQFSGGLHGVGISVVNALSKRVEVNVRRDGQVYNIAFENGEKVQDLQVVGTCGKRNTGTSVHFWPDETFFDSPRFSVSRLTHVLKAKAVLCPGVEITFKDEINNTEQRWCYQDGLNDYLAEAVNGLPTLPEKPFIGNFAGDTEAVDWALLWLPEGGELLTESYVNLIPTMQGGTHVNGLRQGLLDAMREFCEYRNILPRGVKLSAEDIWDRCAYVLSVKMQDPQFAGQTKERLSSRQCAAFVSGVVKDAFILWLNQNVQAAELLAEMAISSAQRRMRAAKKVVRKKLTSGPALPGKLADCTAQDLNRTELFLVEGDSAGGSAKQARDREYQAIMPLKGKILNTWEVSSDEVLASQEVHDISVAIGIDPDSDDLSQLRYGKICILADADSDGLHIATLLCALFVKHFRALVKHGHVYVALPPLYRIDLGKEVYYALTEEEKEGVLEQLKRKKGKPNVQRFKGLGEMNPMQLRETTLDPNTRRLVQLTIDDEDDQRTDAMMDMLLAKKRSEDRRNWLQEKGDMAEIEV
T1 sequence (P0AES4 whole entry, one chain of several): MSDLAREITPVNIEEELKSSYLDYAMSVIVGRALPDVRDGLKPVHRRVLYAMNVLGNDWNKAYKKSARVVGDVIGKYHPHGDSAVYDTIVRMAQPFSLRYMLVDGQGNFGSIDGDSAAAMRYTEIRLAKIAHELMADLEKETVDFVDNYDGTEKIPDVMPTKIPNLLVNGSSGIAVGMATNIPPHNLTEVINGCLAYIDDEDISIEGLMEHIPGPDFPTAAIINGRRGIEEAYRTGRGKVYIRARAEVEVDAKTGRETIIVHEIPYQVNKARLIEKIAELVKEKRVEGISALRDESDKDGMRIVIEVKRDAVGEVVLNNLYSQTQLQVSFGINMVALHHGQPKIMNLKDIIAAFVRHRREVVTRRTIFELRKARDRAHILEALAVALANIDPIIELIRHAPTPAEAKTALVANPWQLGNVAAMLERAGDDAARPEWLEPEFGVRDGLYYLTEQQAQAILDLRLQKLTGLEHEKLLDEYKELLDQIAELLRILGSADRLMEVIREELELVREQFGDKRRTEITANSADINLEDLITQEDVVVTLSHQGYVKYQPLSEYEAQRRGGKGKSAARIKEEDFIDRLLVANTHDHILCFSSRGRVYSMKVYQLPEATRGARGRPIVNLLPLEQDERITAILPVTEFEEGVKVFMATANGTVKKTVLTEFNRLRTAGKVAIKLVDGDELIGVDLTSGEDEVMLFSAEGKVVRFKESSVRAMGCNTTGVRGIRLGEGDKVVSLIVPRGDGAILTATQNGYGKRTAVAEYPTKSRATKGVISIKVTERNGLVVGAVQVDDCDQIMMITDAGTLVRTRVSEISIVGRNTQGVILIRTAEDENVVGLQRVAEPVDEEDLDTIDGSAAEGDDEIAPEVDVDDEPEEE

Row | SMILES | MIC [1] [µg/mL] | MIC (S. aureus ATCC13709) [µg/mL] | MIC (S. pneumoniae ATCC49619) [µg/mL] | IC50 (E. coli DNA gyrase; [2]) [µM] | IC50 (E. coli topoisomerase IV; [3]) [nM] | IC50 (E. coli DNA gyrase) [µM] | IC50 (E. coli topoisomerase IV) [nM]
1 | COc1ccc2nccc(-n3cc4c(n3)CCC(NCc3cc5c(cc3F)SCC(=O)N5)C4)c2n1 (centres unmarked) [Example 40, 7-Fluoro-6-{[2-(6-methoxy-[1,5]naphthyridin-4-yl)-4,5,6,7-tetrahydro-2H-indazol-5-ylamino]-methyl}-4H-benzo[1,4]thiazin-3-one] | 4 (≈ 8.15 µM) | 0.25 (≈ 0.51 µM) | 4 (≈ 8.15 µM) | 4.08 | 122 |  | 
2 | O=C1CSc2cc(F)c(C(=O)NC3CCc4nn(-c5cccc6cccnc56)cc4C3)cc2N1 (centres unmarked) [Example 32, 7-Fluoro-3-oxo-3,4-dihydro-2H-benzo[1,4]thiazine-6-carboxylic acid (2-quinolin-8-yl-4,5,6,7-tetrahydro-2H-indazol-5-yl)-amide] | 16 (≈ 33.8 µM) | 0.25 (≈ 0.528 µM) | 4 (≈ 8.45 µM) |  | 264 |  | 
3 | COc1ccc2nccc(-n3cc4c(n3)CCC(NCCOc3cc(F)cc(F)c3)C4)c2c1 (centres unmarked) [Example 121] | 8 (≈ 17.8 µM) | 1 (≈ 2.22 µM) | 2 (≈ 4.44 µM) |  |  | 1.11 | 277
4 | COc1ccc2nccc(-n3cc4c(n3)CCC(NCc3ccc5c(c3)NCCS5)C4)c2c1 (centres unmarked) [Example 102] | 8 (≈ 17.5 µM) | 0.5 (≈ 1.09 µM) | 0.5 (≈ 1.09 µM) | 1.09 | 137 |  | 
5 | COc1ccc2nccc(-n3cc4c(n3)CCC(NCC(=O)Nc3ccc5c(c3)NC(=O)CS5)C4)c2n1 (centres unmarked) [Example 83, 2-[2-(6-Methoxy-[1,5]naphthyridin-4-yl)-4,5,6,7-tetrahydro-2H-indazol-5-ylamino]-N-(3-oxo-3,4-dihydro-2H-benzo[1,4]thiazin-6-yl)-acetamide] | > 128 | 2 (≈ 3.88 µM) | 32 (≈ 62.1 µM) | < 0.485 | 485 |  | 
6 | O=C1CSc2ccc(C(=O)NC3CCc4nn(-c5ccnc6cc(Cl)ccc56)cc4C3)cc2N1 (centres unmarked) [Example 81, 3-Oxo-3,4-dihydro-2H-benzo[1,4]thiazine-6-carboxylic acid [2-(7-chloro-quinolin-4-yl)-4,5,6,7-tetrahydro-2H-indazol-5-yl]-amide] | > 128 | 2 (≈ 4.08 µM) | > 128 |  | > 1020 |  | 
7 | COc1ccc2nccc(-n3cc4c(n3)CCC(N(CC(=O)O)Cc3ccc5c(c3)NC(=O)CS5)C4)c2n1 (centres unmarked) [Example 68, [[2-(6-Methoxy-[1,5]naphthyridin-4-yl)-4,5,6,7-tetrahydro-2H-indazol-5-yl]-(3-oxo-3,4-dihydro-2H-benzo[1,4]thiazin-6-ylmethyl)-amino]-acetic acid] | > 128 | 8 (≈ 15.1 µM) | 8 (≈ 15.1 µM) | 1.88 |  |  | 
8 | COc1ccc2nccc(-n3cc4c(n3)CCC(NC(=O)c3ccc(Br)s3)C4)c2c1 (centres unmarked) [Example 72, 5-Bromo-thiophene-2-carboxylic acid [2-(6-methoxy-quinolin-4-yl)-4,5,6,7-tetrahydro-2H-indazol-5-yl]-amide] | > 128 | 2 (≈ 4.14 µM) | > 128 | > 33.1 |  |  | 
9 | COc1ccc2nccc(-n3cc4c(n3)CCC(NC(=O)/C=C/c3cc(F)cc(F)c3)C4)c2n1 (centres unmarked) [Example 11, 3-(3,5-Difluoro-phenyl)-N-[2-(6-methoxy-[1,5]naphthyridin-4-yl)-4,5,6,7-tetrahydro-2H-indazol-5-yl]-acrylamide] | > 128 | < 0.125 | 16 (≈ 34.7 µM) | 4.33 |  |  | 
10 | COc1ccc2nccc(-n3cc4c(n3)CCC(NC(=O)c3cc5c(cc3C(F)(F)F)SCC(=O)N5)C4)c2n1 (centres unmarked) [Example 112, 3-Oxo-7-trifluoromethyl-3,4-dihydro-2H-benzo[1,4]thiazine-6-carboxylic acid [2-(6-methoxy-[1,5]naphthyridin-4-yl)-4,5,6,7-tetrahydro-2H-indazol-5-yl]-amide] | 4 (≈ 7.21 µM) | 0.125 (≈ 0.225 µM) | 8 (≈ 14.4 µM) | 0.451 |  |  | 
11 | COc1ccc2nccc(-n3cc4c(n3)CCC(NC(=O)c3cc5ccccc5s3)C4)c2c1 (centres unmarked) [Example 23, Benzo[b]thiophene-2-carboxylic acid [2-(6-methoxy-quinolin-4-yl)-4,5,6,7-tetrahydro-2H-indazol-5-yl]-amide] | > 128 | < 0.125 | 2 (≈ 4.4 µM) |  | > 2200 |  | 
12 | COc1ccc2nccc(-n3cc4c(n3)CCC(NC(=O)c3cc5c(F)cc(F)cc5[nH]3)C4)c2n1 (centres unmarked) [Example 7, 4,6-Difluoro-1H-indole-2-carboxylic acid [2-(6-methoxyl-[1,5]naphthyridin-4-yl)-4,5,6,7-tetrahydro-2H-indazol-5-yl]-amide] | > 128 | 0.25 (≈ 0.527 µM) | > 128 | 4.22 |  |  | 
13 | COc1ccc2nccc(-n3cc4c(n3)CCC(N(CC(=O)OC(C)(C)C)Cc3ccc5c(c3)NC(=O)CS5)C4)c2n1 (centres unmarked) [Example 67, [[2-(6-Methoxy-[1,5]naphthyridin-4-yl)-4,5,6,7-tetrahydro-2H-indazol-5-yl]-(3-oxo-3,4-dihydro-2H-benzo[1,4]thiazin-6-ylmethyl)-amino]-acetic acid tert-butyl ester] | > 128 | 4 (≈ 6.82 µM) | 64 (≈ 109 µM) | > 13.6 |  |  | 
14 | COc1ccc2nccc(-n3cc4c(n3)CCC(NC(=O)c3cc5c(cc3Cl)SCC(=O)N5)C4)c2n1 (centres unmarked) [Example 6, 7-Chloro-3-oxo-3,4-dihydro-2H-benzo[1,4]thiazine-6-carboxylic acid [2-(6-methoxy-[1,5]naphthyridin-4-yl)-4,5,6,7-tetrahydro-2H-indazol-5-yl]-amide] | 2 (≈ 3.84 µM) | < 0.125 | 4 (≈ 7.68 µM) | 0.23 |  |  | 
15 | O=C1CSc2ccc(CNC3CCc4c(cnn4-c4cc(C(F)(F)F)nc5ccccc45)C3)cc2N1 (centres unmarked) [Example 139, 6-{[1-(2-Trifluoromethyl-quinolin-4-yl)-4,5,6,7-tetrahydro-1H-indazol-5-ylamino]-methyl}-4H-benzo[1,4]thiazin-3-one] | > 128 | 8 (≈ 15.7 µM) | 32 (≈ 62.8 µM) | > 31.4 |  |  | 
16 | COc1ccc2nccc(-n3cc4c(n3)CCC(NC(=O)/C=C/c3ccc(F)c(F)c3)C4)c2n1 (centres unmarked) [Example 93, 3-(3,4-Difluoro-phenyl)-N-[2-(6-methoxy-[1,5]naphthyridin-4-yl)-4,5,6,7-tetrahydro-2H-indazol-5-yl]-acrylamide] | > 128 | 0.25 (≈ 0.542 µM) | 16 (≈ 34.7 µM) | > 34.7 |  |  | 
17 | COc1ccc2nccc(-n3cc4c(n3)CCC(NC(=O)c3cccnc3Cl)C4)c2c1 (centres unmarked) [Example 78, 2-Chloro-N-[2-(6-methoxy-quinolin-4-yl)-4,5,6,7-tetrahydro-2H-indazol-5-yl]-nicotinamide] | > 128 | 16 (≈ 36.9 µM) | > 128 | > 36.9 |  |  | 
18 | COc1ccc2nccc(-n3cc4c(n3)CCC(NC(=O)c3cc5ccccc5o3)C4)c2c1 (centres unmarked) [Example 25, Benzofuran-2-carboxylic acid [2-(6-methoxy-quinolin-4-yl)-4,5,6,7-tetrahydro-2H-indazol-5-yl]-amide] | > 128 | 1 (≈ 2.28 µM) | 8 (≈ 18.2 µM) | > 36.5 |  |  | 
19 | COc1ccc2nccc(-n3cc4c(n3)CCC(NC(=O)c3ccc5c(c3)OCCN5C)C4)c2c1 (centres unmarked) [Example 79, 4-Methyl-3,4-dihydro-2H-benzo[1,4]oxazine-7-carboxylic acid [2-(6-methoxy-quinolin-4-yl)-4,5,6,7-tetrahydro-2H-indazol-5-yl]-amide] | > 128 | 4 (≈ 8.52 µM) | 8 (≈ 17 µM) | > 34.1 |  |  | 
